Reference: patent US20250221405A1, “ROOT NODULE FORMATION-PROMOTING COMPOSITION, AND ROOT HAIR FORMATION-PROMOTING COMPOSITION” (KANEKA CORPORATION, priority 2022, published 2025)

What was measured:
soybeans (Fukuyutaka) [1] = assay: Experimental Example 1: seed coating, number of root nodules; format: in vivo, soybean; conditions: Table 1-1
Description: A solution of SF, SL, or RL dissolved in water (a composition for promoting root nodule formation) as the following amount in each of the following treatments was prepared. The seeds of soybeans (Fukuyutaka) were coated using the solution in an amount of 800 μL/100 g seed to obtain coated seeds.
(§1) A 9 cm poly pot was filled with culture soil and seeded with three coated seeds in each pot.
(§2) After seeding, the coated seeds were cultivated in a greenhouse set at 28° C. during the day (14h) and 18° C. at night (10h).
Seven days after the seeding, the soybeans in each pot were thinned to one plant, and each pot was irrigated with 4.3 ml of a mixture of rhizobium materials (rhizobium and azospirillum) mixed with water at a proportion of 10 g/L.
(§3) Twenty-one days after the irrigation, the roots were washed with water so as not to remove root nodules, the culture soil was removed, and then, the root nodules formed on the roots were collected.
After the seeding, each pot was fertilized with ½ Hoagland solution once a week. In addition, experiments were conducted on eight pots (eight plants) in each treatment.
A plurality of experiments were conducted by changing the type of the composition for promoting root nodule formation and the like. Tables 1-1 and 1-2 show the date of seeding, the date of irrigating, the date of investigating the number of root nodules, the amount of SF, SL, or RL in the composition for promoting root nodule formation, and the investigation result of the number of root nodules. Note that the number of root nodules is indicated by a relative value with Tl taken as 100, with a numerical value in parentheses indicating the average number of root nodules actually measured (pieces/plant).

soybeans (Fukuyutaka) [2] = assay: Experimental Example 2: soil irrigation with composition comprising rhizobium materials, number of root nodules; format: in vivo, soybean
Description: For each of the following treatment, to a mixture of rhizobium materials (rhizobium and azospirillum) mixed with water at a proportion of 10 g/L, SF, SL, or RL was added in the following amount to prepare a solution comprising the rhizobium materials and SF, SL, or RL (a composition for promoting root nodule formation).
A 9 cm poly pot was filled with culture soil and seeded with three seeds of soybeans (Fukuyutaka) in each pot.
After seeding, the seeds were cultivated in a greenhouse set at 28° C. during the day (14h) and 18° C. at night (10h).
Seven days after the seeding, the soybeans in each pot were thinned to one plant, and each pot was irrigated with 4.3 ml of the composition for promoting root nodule formation (in the treatment T1, a mixture of rhizobium materials (rhizobium and azospirillum) mixed with water at a proportion of 10 g/L).
as §3
(§4) After the seeding, each pot was fertilized with ½ Hoagland solution (50 mL) once a week. In addition, experiments were conducted on eight pots (eight plants) in each treatment.
A plurality of experiments were conducted by changing the type of the composition for promoting root nodule formation and the like. Tables 2-1 and 2-2 show the date of seeding, the date of irrigating, the date of investigating the number of root nodules, the composition for promoting root nodule formation, and the investigation result of the number of root nodules. Note that the number of root nodules is indicated by a relative value with T1 taken as 100, with a numerical value in parentheses indicating the average number of root nodules actually measured (pieces/plant).

soybeans (Fukuyutaka) [3] = assay: Experimental Example 3: seed coating with biosurfactant and/or KVP, number of root nodules; format: in vivo, soybean; conditions: Table 3-1
Description: A solution of SF, SL, or RL and/or KVP dissolved in water (a composition for promoting root nodule formation) as the following amount in each of the following treatments was prepared. The seeds of soybeans (Fukuyutaka) were coated using the solution in an amount of 800 μL/100 g seed to obtain coated seeds.
as §1, §2
Seven days after the seeding, the soybeans in each pot were thinned to one plant, and each pot was irrigated with 4.3 mL of a mixture of rhizobium materials (rhizobium and azospirillum) mixed with water at a proportion of 10 g/L.
as §3, §4
A plurality of experiments were conducted by changing the type of the composition for promoting root nodule formation and the like. Tables 3-1 and 3-2 show the amounts of SF, SL, or RL and/or KVP in the composition for promoting root nodule formation and the investigation result of the number of root nodules. Note that the number of root nodules is indicated by a relative value with Tl taken as 100, with a numerical value in parentheses indicating the average number of root nodules actually measured (pieces/plant).

[4] = test system: Japanese mustard spinach (Haru no Senbatsu); assay: Experimental Example 5: foliar application, microscopic observation of root hair; format: in vivo; design: key: those with a significant root hair increase observed were evaluated as AA; those with a root hair increase observed were evaluated as BB; those with no root hair increase observed were evaluated as CC; those with an overall or partial root hair decrease observed were evaluated as DD
Description: An observation tank formed with ½ MS agar medium (0.8% agar) was prepared in an acrylic tank. Japanese mustard spinach (Haru no Senbatsu) was seeded near the surface of the observation tank. After seeding, the Japanese mustard spinach was cultivated in an incubator set in a light period (6:00-18:00, temperature 26° C., illuminance 120 μmol/m^2·s) and a dark period (18:00-6:00, temperature 18° C.). Twelve to fourteen days after the seeding, the following liquid (a composition for promoting root hair formation) was applied on the leaf surfaces of the plant body (foliar application) so as not to drip on the agar in each of the following treatments. […] A plurality of experiments were conducted by changing the date of seeding, the date of foliar application, the date of observation, and the type of the composition for promoting root hair formation and the like. Tables 5 to 9 show the composition for promoting root hair formation, the outline of operation and the observation results of root hair.

[5] = seed coating 0.1 g/t seed (diluted 80000 times), 21 days after rhizobium irrigation
[6] = seed coating 1 g/t seed (diluted 8000 times)
[7] = seed coating 5 g/t seed (diluted 1600 times)
[8] = seed coating 10 g/t seed (diluted 800 times)
[9] = seed coating 25 g/t seed (diluted 320 times)
[10] = seed coating 50 g/t seed (diluted 160 times)
[11] = Table 2-1, irrigation 4.3 ml, diluted 100 times
[12] = Table 2-1, irrigation, diluted 500 times
[13] = Table 2-1, irrigation, diluted 1000 times
[14] = seed coating SF 0.5 g/t seed (diluted 16000 times)
[15] = seed coating SF 5 g/t seed (diluted 1600 times)

## surfactin Na [SF]
Soybeans (Fukuyutaka) [1]; [5]
  Number of Root Nodules, average number actually measured: 15.4 pieces/plant
  Number of Root Nodules, relative value with T1 taken as 100: 105
Soybeans (Fukuyutaka) [1]; [6]
  Number of Root Nodules, average number actually measured: 16.6 pieces/plant
  Number of Root Nodules, relative value with T1 taken as 100: 114
Soybeans (Fukuyutaka) [1]; [7]
  Number of Root Nodules, average number actually measured: 16.6 pieces/plant
  Number of Root Nodules, relative value with T1 taken as 100: 114
Soybeans (Fukuyutaka) [1]; [8]
  Number of Root Nodules, average number actually measured: 15.4 pieces/plant
  Number of Root Nodules, relative value with T1 taken as 100: 105
Soybeans (Fukuyutaka) [1]; [9]
  Number of Root Nodules, average number actually measured: 16.8 pieces/plant
  Number of Root Nodules, relative value with T1 taken as 100: 115
Soybeans (Fukuyutaka) [1]; [10]
  Number of Root Nodules, average number actually measured: 17.3 pieces/plant
  Number of Root Nodules, relative value with T1 taken as 100: 118
Soybeans (Fukuyutaka) [2]; [11]
  Number of Root Nodules, average number actually measured: 15.9 pieces/plant
  Number of Root Nodules, relative value with T1 taken as 100: 109
Soybeans (Fukuyutaka) [2]; [12]
  Number of Root Nodules, average number actually measured: 16.3 pieces/plant
  Number of Root Nodules, relative value with T1 taken as 100: 111
Soybeans (Fukuyutaka) [2]; [13]
  Number of Root Nodules, average number actually measured: 16.9 pieces/plant
  Number of Root Nodules, relative value with T1 taken as 100: 115
Soybeans (Fukuyutaka) [3]; [14]
  Number of Root Nodules, average number actually measured: 25.3 pieces/plant
  Number of Root Nodules, relative value with T1 taken as 100: 109
Soybeans (Fukuyutaka) [3]; [15]
  Number of Root Nodules, average number actually measured: 26.9 pieces/plant
  Number of Root Nodules, relative value with T1 taken as 100: 116
[4]; Table 5, aqueous solution diluted 1000 times, compared with T1
  Observation Result (root hair): BB
[4]; Table 5, aqueous solution diluted 2000 times
  Observation Result (root hair): AA
[4]; Table 5, aqueous solution diluted 5000 times
  Observation Result (root hair): AA
